Results published in patent US12319664B2, “Herbicidally active 3-phenylisoxazoline-5-carboxamides of cyclopentenylcarboxylic acid derivatives” (Bayer Aktiengesellschaft, priority 2018, dated 2025).

Tests used:
SETVI = test: Post-emergence herbicidal action against SETVI; type: in vivo, Setaria viridis; conditions: application rate 80 g/ha, rated visually after about 3 weeks
How it was run: (§1)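 Greenhouse pot test in sandy loam; plants sprayed at the one-leaf stage, 2 to 3 weeks after sowing, with WP or EC formulations as aqueous suspension/emulsion plus 0.5% additive at 600 l/ha water. Visual rating after about 3 weeks against untreated controls (100% = plants died, 0% = like control).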

LOLRI = test: Post-emergence herbicidal action against LOLRI; type: in vivo, Lolium rigidum; conditions: application rate 80 g/ha, rated visually after about 3 weeks
How it was run: as §1

ECHCG = test: Post-emergence herbicidal action against ECHCG; type: in vivo, Echinochloa crus-galli; conditions: application rate 80 g/ha, rated visually after about 3 weeks
How it was run: as §1

ABUTH = test: Post-emergence herbicidal action against ABUTH; type: in vivo, Abutilon theophrasti; conditions: application rate 80 g/ha, rated visually about 3 weeks after treatment
How it was run: as §1

POLCO = test: Post-emergence herbicidal action against POLCO; type: in vivo, Polygonum convolvulus; conditions: application rate 80 g/ha, rated visually about 3 weeks after treatment
How it was run: as §1

ALOMY = test: Post-emergence herbicidal action against ALOMY; type: in vivo, Alopecurus myosuroides; conditions: application rate 80 g/ha, rated visually after about 3 weeks
How it was run: as §1

STEME = test: Post-emergence herbicidal action against STEME; type: in vivo, Stellaria media; conditions: application rate 80 g/ha, rated visually about 3 weeks after treatment
How it was run: as §1

AVEFA = test: Post-emergence herbicidal action against AVEFA; type: in vivo, Avena fatua; conditions: application rate 80 g/ha, rated visually after about 3 weeks
How it was run: as §1

HORMU = test: Post-emergence herbicidal action against HORMU; type: in vivo, Hordeum murinum; conditions: application rate 80 g/ha
How it was run: as §1

VIOTR = test: Post-emergence herbicidal action against VIOTR; type: in vivo, Viola tricolor; conditions: application rate 80 g/ha, rated visually about 3 weeks after treatment
Method: [table] 2. Post-emergence herbicidal action against harmful plants and crop plant compatibility Seeds of monocotyledonous and dicotyledonous weeds and crop plants are placed in sandy loam in plastic or wood-fibre pots, covered with soil and cultivated in a greenhouse under controlled growth conditions. 2 to 3 weeks after sowing, the test plants are treated at the one-leaf stage. The compounds of the invention, formulated in the form of wettable powders (WP) or as emulsion concentrates (EC), are then sprayed onto the green parts of the plants as aqueous suspension or emulsion with addition of 0.5% additive at a water application rate of 600 l/ha (converted). After the test plants have been kept in the greenhouse under optimum growth conditions for about 3 weeks, the activity of the preparations is rated visually in comparison to untreated controls. For example, 100% activity=the plants have died, 0% activity=like control plants.

AMARE = test: Post-emergence herbicidal action against AMARE; type: in vivo, Amaranthus retroflexus; conditions: application rate 80 g/ha, rated visually about 3 weeks after treatment
How it was run: as §1

VERPE = test: Post-emergence herbicidal action against VERPE; type: in vivo, Veronica persica; conditions: application rate 80 g/ha
How it was run: as §1

PHBPU = test: Post-emergence herbicidal action against PHBPU; type: in vivo, Pharbitis purpurea; conditions: application rate 80 g/ha, rated visually about 3 weeks after treatment
How it was run: as §1

Structure (SMILES) | Herbicidal action against [%] SETVI (SETVI) [%] | Herbicidal action against [%] LOLRI (LOLRI) [%] | Herbicidal action against [%] ECHCG (ECHCG) [%] | Herbicidal action against [%] ABUTH (ABUTH) [%] | Herbicidal action against [%] POLCO (POLCO) [%] | Herbicidal action against [%] ALOMY (ALOMY) [%] | Herbicidal action against [%] STEME (STEME) [%] | Herbicidal action against [%] AVEFA (AVEFA) [%] | Herbicidal action against [%] HORMU (HORMU) [%] | Herbicidal action against [%] VIOTR (VIOTR) [%] | Herbicidal action against [%] AMARE (AMARE) [%] | Herbicidal action against [%] VERPE (VERPE) [%] | Herbicidal action against [%] PHBPU (PHBPU) [%]
C=CC1(C(=O)N[C@H]2CC=C(C(=O)OCC)C2)CC(c2cc(F)cc(F)c2)=NO1 (stereo partly shown) [III-17] | 80 | 90 | 80 | 80 | 80 | 100 | 90 | 90 | 90 | 80 | 90 | 90 | 90
C=CC1(C(=O)N[C@H]2CC=C(C(=O)O)C2)CC(c2cc(F)cc(F)c2)=NO1 (stereo partly shown) [III-09] | 80 | 100 | 90 | 80 | 90 | 90 | 90 | 100 | 100 | 90 | 90 | 90 | 90
COCCOC(=O)C1C=CC(NC(=O)C2(C)CC(c3cc(F)cc(C#N)c3)=NO2)C1 (mixture of isomers) [Example I-082] | 90 | 100 | 90 | 90 | 90 | 100 | 90 | 100 | 100 | 90 | 90 | 90 | 90
N#Cc1cc(F)cc(C2=NOC(C(=O)N[C@H]3C=C[C@@H](C(=O)OCC(F)(F)F)C3)(C(F)(F)F)C2)c1 (stereo partly shown) [Example I-096] | 80 | 100 | 80 | 90 | 90 | 100 | 90 | 100 | 100 | 90 | 90 | 90 | 90
CC(C)(C#N)NC(=O)C1C=CC(NC(=O)C2(C(F)(F)F)CC(c3cc(F)cc(F)c3)=NO2)C1 (mixture of isomers) [II-34] | 80 | 90 | 80 | 80 | 90 | 90 | 90 | 100 | 80 | 90 | 90 | 90 | 90
COCCOC(=O)C1C=CC(NC(=O)C2(C(F)(F)F)CC(c3cc(F)cc(C#N)c3)=NO2)C1 (stereo not shown) [Example I-100] | 80 | 90 | 90 | 80 | 90 | 100 | 90 | 100 | 90 | 80 | 80 | 90 | 80
N#Cc1cccc(C2=NOC(C(=O)NC3C=CC(C(=O)O)C3)(C(F)(F)F)C2)c1 (mixture of isomers) [Example I-085] | 80 | 100 | 90 | 90 | 80 | 90 | 80 | 100 | 100 | 80 | 90 | 90 | 90
COC(=O)C1C=CC(NC(=O)C2(C)CC(c3cc(F)cc(C#N)c3)=NO2)C1 (mixture of isomers) [Example I-084] | 90 | 100 | 90 | 90 | 90 | 100 | 100 | 100 | 100 | 90 | 90 | 90 | 90
COC(=O)C1C=CC(NC(=O)C2(C(F)(F)F)CC(c3cccc(C#N)c3)=NO2)C1 (mixture of isomers) [Example I-087] | 80 | 100 | 80 | 90 | 90 | 100 | 90 | 100 | 100 | 90 | 90 | 90 | 90
CCOC(=O)C1=CC[C@H](NC(=O)C2(C)CC(c3cc(F)cc(F)c3)=NO2)C1 (stereo partly shown) [III-07] | 90 | 90 | 90 | 80 | 80 | 90 | 90 | 90 | 80 | 90 | 90 | 90 | 80
